Measured values reported in patent US20260042834A1, “ANTI-CORTICOTROPIN-RELEASING HORMONE ANTIBODIES AND POLYCYSTIC OVARY SYNDROME” (HBM ALPHA THERAPEUTICS, INC., priority 2022, published 2026).

Tested on: human CRHR1
Assay: CRH-induced luciferase reporter blocking assay, CHO-CRE-hCRHR1 cells
Type: cell-based
Conditions: CHO-CRE-hCRHR1 Clone 11, data not shown
Protocol: To create CHO-CRE-hCRHR1, -hCRHR2, -mCRHR1, and -mCRHR2 reporter cell lines, pcDNA3.1-hCRHR1, -hCRHR2, -mCRHR1, and -mCRHR2 were introduced into CHO-CRE cells established above by electroporation as described above. Selection antibiotics hygromycin at 500 μg/ml and G418 at 1,000 μg/ml were employed. Individual established stable cell lines were characterized by both CRH and forskolin stimulation.
Activated GPCR proteins increase production of the intracellular cAMP.
Blocking CRHR1 by small molecules or neutralization of CRH peptide can reduce luciferase expression if the CRH-CRHR1 system works in CHO-CRE-hCRHR1 cells.
50 μl of 4× serially diluted antibodies was added (8 points, 1/4 diluted by growth medium) to plates containing CHO-CRE-hCRHR1 cells, and 50 μl of 4×CRH (4× is 2 nM, final is 0.5 nM) was added. Similarly, 4×CRH (4× is 0.4 nM, final is 0.1 nM) was added to CHO-CRE-hCRHR2 cells and CHO-CRE-mCRHR1 cells, and 4×CRH (4× is 20 nM, final is 5 nM) was added to CHO-CRE-mCRHR2 cells. Next, plates were incubated 4-6 hours at 37° C. in a CO2 incubator. 60 μl of culture medium was removed, to which was added 60 μl of Bio-Glo luciferase, followed by incubation for 10 min at RT. Plates were read in a luciferase plate reader (EnVision, PerkinElmer).

CCCCN(CC)c1nc(C)nc2c1c(C)c(C)n2-c1c(C)cc(C)cc1C [Antalarmin, reference compound]
CRH-mediated luciferase expression: blocked
